Measurements taken from patent US5446060A, “Aminoalkyl thienyl ketone derivatives and their use as peripheral vasodilators” (Laboratoire L. Lafon, priority 1990, dated 1995).
Structures can show the parent of a compound that is named as a salt. Where two headings read alike, the source gives them in different places.

Key:
[1] = system: femoral flow rate; assay: Cardiovascular activity, compounds administered intravenously in anaesthetised dogs (femoral flow rate); type: in vivo; conditions: intravenous; for increase in femoral flow rate: 4 mg/kg; for minimal effective dose: Canis lupus familiaris, read-out: dose at and above which femoral flow rate is significantly increased
Excerpt: (§1) The activity of the compounds administered intravenously was studied in anaesthetised dogs.

[2] = system: arterial blood pressure; assay: Cardiovascular activity, compounds administered intravenously in anaesthetised dogs (arterial blood pressure); type: in vivo; conditions: intravenous
Excerpt: as §1

[3] = Solubility in water; type: physicochemical; conditions: for solubility: read-out: solubility in water (concentration)
[4] = Acute toxicity determined orally in mice; conditions: mouse, in vivo; oral, mice (NMRI)
Description: The acute toxicity was determined orally in mice (NMRI).

[5] = system: microcirculation of the chamber of the rabbit's ear; assay: Activity with respect to the microcirculation of the chamber of the rabbit's ear; type: in vivo; conditions: 1 mg/kg I.V.
Excerpt: The activity of the compounds administered intravenously with respect to the microcirculation of the chamber of the rabbit's ear was studied.

[6] = system: ATP in fresh blood; assay: Effects on ATP in fresh blood measured ex vivo by 31P NMR spectroscopy
Description: The effects of the compounds on the ATP in fresh blood were measured ex vivo by ^31 p NMR spectroscopy.
The results are given in the table below in the form of percentage changes.

For O=C(CCCN1CCCC1)c1cccs1 [Example 1, 4-pyrrolidino-l-(2-thienyl)butanone hydrochloride], which “increase in femoral flow rate” value [1] is on record?
The value was 170%.

And the minimal effective dose [1]?
The minimal effective dose was at least 1 mg/kg.

And the “change in arterial blood pressure” value ([2]; even at 4 mg/kg)?
Its value is “no significant change”.

What about the solubility [3] of the same compound?
Its solubility is 200 mg/mL.

What about the LD50 [4] of the same compound?
Its LD50 is 121 ± 10 mg/kg.

And the “increase in non-terminal arteriolar diameter” value [5]?
The value was “significant and long-lasting increase”.

What about the “percentage change in αATP” value [6] of the same compound?
The value was “+41.4%”.

And the “percentage change in βATP” value [6]?
Its value is “+31.2%”.

What about the “percentage change in γATP” value [6] of the same compound?
Its value is “+36.7%”.

For O=C(CCCN1CCCCC1)c1cccs1 [Example 2, 4-piperidino-l-(2-thienyl)butanone hydrochloride], which “increase in femoral flow rate compared with buflomedil at 4 mg/kg” value ([1]; 2 mg/kg) is on record?
The value was “same intensity as buflomedil at a dose of 4 mg/kg”.

What about the minimal effective dose [1] of the same compound?
The minimal effective dose was at least 1 mg/kg.

What about the “duration of effect on femoral flow rate compared with buflomedil” value [1] of the same compound?
Its value is “longer-lasting than that of buflomedil”.

What about the “change in arterial blood pressure” value ([2]; 2 mg/kg) of the same compound?
Its value is “without modifying arterial blood pressure”.

And the “solubility in water (in words)” value ([3]; hydrochloride)?
Its value is “water-soluble”.

What about the LD50 [4] of the same compound?
Its LD50 is 235 ± 35 mg/kg.

With CC1CCCN(CCCC(=O)c2cccs2)C1 (stereo not drawn) [Example 3, 4-(3-methylpiperidino)-1-(2-thienyl)butanone hydrochloride] as the compound, how does the solubility [3] read?
The solubility was 200 mg/mL.

What about the LD50 [4] of the same compound?
The LD50 was 207 ± 29 mg/kg.

What about the “percentage change in αATP” value [6] of the same compound?
Its value is “+54.2%”.

What about the “percentage change in βATP” value [6] of the same compound?
Its value is “+54.6%”.

And the “percentage change in γATP” value [6]?
Its value is “+34.7%”.

For O=C(CCCN1CCOCC1)c1cccs1 [Example 4, 4-morpholino-l-(2-thienyl)butanone hydrochloride], which “solubility in water (in words)” value [3] is on record?
Its value is “water-soluble”.

With O=C(CCCN1CCCC(CO)C1)c1cccs1 (stereo not drawn) [Example 5, 4-[3-(hydroxymethyl)piperidino]-1-(2-thienyl) butanone hydrochloride] as the compound, how does the “solubility in water (in words)” value [3] read?
Its value is “water-soluble”.

Which “solubility in water (in words)” value [3] does the source give for O=C(CCCn1ccnc1)c1cccs1 [Example 6, 4-(1-imidazolyl)-1-(2-thienyl)butanone hydrochloride] here?
The value was “water-soluble”.

Which “increase in femoral flow rate (in words)” value ([1]; 1.14 mg/kg and above) does the source give for O=C(CCCN1CCCCCC1)c1cccs1 [Example 7, 4-hexamethylenimino-1-(2-thienyl)butanone hydrochloride] here?
The value was “significant and longlasting increase”.

And the minimal effective dose [1]?
Its minimal effective dose is at least 1.14 mg/kg.

What about the “increase in femoral flow rate compared with buflomedil at 4 mg/kg” value ([1]; dose of 1.14 mg/kg and above) of the same compound?
The value was “larger than that observed with buflomedil at a dose of 4 mg/kg”.

And the “solubility in water (in words)” value [3]?
Its value is “watersoluble”.

What about the LD50 [4] of the same compound?
Its LD50 is 131 ± 15 mg/kg.

And the “increase in non-terminal arteriolar diameter” value [5]?
The value was “significant and long-lasting increase”.

With O=C(CCCN1CCCC1)c1ccsc1 [Example 8, 4-pyrrolidino-1-(3-thienyl)butanone hydrochloride] as the compound, how does the “solubility in water (in words)” value [3] read?
The value was “water-soluble”.

For O=C(CCCN1CCCCCC1)c1ccsc1 [Example 9, 4-hexamethylenimino-1-(3-thienyl)butanone hydrochloride], which “solubility in water (in words)” value [3] is on record?
Its value is “water-soluble”.

For CC1CCCN(CCCC(=O)c2ccsc2)C1 (stereo not drawn) [Example 10, 4-(3-methylpiperidino)-1-(3thienyl)butanone hydrochloride], which “solubility in water (in words)” value [3] is on record?
The value was “water-soluble”.

For O=C(CCCN1CCCC1)c1cccs1 [Example 11, 4-pyrrolidino-1-(2-thienyl)butanone 2,4,6-trimethoxybenzoate], which “solubility in water (in words)” value [3] is on record?
Its value is “soluble in water on heating”.

For O=C(CCCN1CCCCC1)c1cccs1 [Example 12, 4-piperidino-1-(2-thienyl)butanone 2,4,6-trimethoxybenzoate], which “solubility in water (in words)” value [3] is on record?
The value was “soluble in water on heating”.

For COc1cc(OC)c(C(=O)CCCN2CCCC2)c(OC)c1 [buflomedil, reference compound], which “increase in femoral flow rate” value [1] is on record?
The value was 106%.

What about the “change in ATP level” value [6] of the same compound?
Its value is “did not reveal any change in ATP level”.
